{
  "source": "patent US5017369A",
  "about": "“Film-forming teat sealer for prevention of mastitis and use thereof” (priority 1989, dated 1991)",
  "origin": "cited, not measured here",
  "settings": "gluconate salt dissolved in water",
  "data": [
    {"smiles": "N=C(NCCCCCCNC(=N)NC(=N)Nc1ccc(Cl)cc1)NC(=N)Nc1ccc(Cl)cc1", "note": "[chlorhexidine gluconate, bis(p-chlorophenyl-diguanido)hexane]", "values": [
      {"measurement": "pH of water solutions", "result": "~7.0"}
    ]}
  ]
}
